In PubChem BioAssay (NCI):
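Results reflect a 48-hour exposure of cells in 96-well plates to compound at five concentrations. TGI marks complete inhibition of growth.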

Tests used:
Assay in all cases: inhibition of tumour cell growth, NCI panel, 48 h
[1] = test system: CCRF-CEM leukemia
[2] = test system: DU-145 prostate
[3] = test system: HCT-15 colon
[4] = test system: HT29 colon
[5] = test system: MDA-N
[6] = test system: OVCAR-3 ovarian
[7] = test system: PC-3 prostate
[8] = test system: SF-539 CNS
[9] = test system: SK-OV-3 ovarian
[10] = test system: SNB-19 CNS

SMILES | TGI [1] [µM] | TGI [2] [µM] | TGI [3] [µM] | TGI [4] [µM] | TGI [5] [µM] | TGI [6] [µM] | TGI [7] [µM] | TGI [8] [µM] | TGI [9] [µM] | TGI [10] [µM]
COc1ccc(N2C(=O)CC(=O)N(NC(=O)C(C)Oc3ccccc3C)C2=S)cc1 (stereo not given) | > 100 | > 100 | > 100 | > 100 | > 100 | > 100 | > 100 | > 100 | > 100 | > 100
CC1=CCC([C@@](C)(O)CCCC(C)(C)N=C=S)CC1 (stereo not given in full) | 48.9 | 30.7 | 34.2 | 32.9 | 32.4 | 32.6 | 33 | 33.3 | 32.9 | 31.1
CCNC(=S)NNC(=O)C12CC3CC(CC(C3)C1)C2 | > 100 | > 100 | > 100 | > 100 | > 100 | > 100 | > 100 | > 100 | > 100 | > 100
CC(C)SC(=S)Sc1c(Cl)c(Cl)nc(Cl)c1Cl | 6.09 | 11.3 | > 34.1 | 12.5 | 11.1 | 3.52 | 16 | 24.8 | 32.7 | 21.1
O=C1c2cc(-c3ccccc3)cnc2S(=O)(=O)N1c1ccc(Br)cc1 | > 100 | > 100 | > 100 | > 100 | > 100 | > 100 | > 100 | 87.2 | 53.9 | 35
O=S(=O)(O)C(CO)c1ccccc1 (stereo not given) (tested in a mixture with another compound) | > 100 | > 100 | > 100 | > 100 | > 100 | > 100 | > 100 | > 100 | > 100 | > 100
Oc1cc(Cl)cc2cccnc12 | 1.95 | > 89.7 | > 100 | 32.2 | > 100 | 3.18 | > 100 | > 67 | > 100 | > 100
N[C@@H](Cc1ccccc1)C(=O)N1CCC[C@@H]1P(=O)(Oc1ccccc1)Oc1ccccc1 | > 100 | > 100 | > 100 | > 100 | > 100 | > 100 | > 100 | > 100 | > 100 | > 100
O=[N+]([O-])C(=C(Nc1cccc2cccnc12)Nc1cccc2cccnc12)C(Cl)=C(Cl)Cl | > 100 | > 100 | > 100 | > 100 | > 69.7 | > 100 | > 100 | > 100 | > 100 | > 100
Cc1cccc(C)c1NC(=O)C(Cc1c[nH]c2ccccc12)NC(=O)OCc1ccccc1 (stereo not given) | 76.9 | 51.6 | > 100 | 68.7 | 54.6 | 69.3 | 28.8 | 41 | 65.1 | 51.6
O=C(O)CN1CCNCCN(CC(=O)O)CCN(CC(=O)O)CCNCC1 | > 100 | > 100 | > 100 | > 100 | > 100 | > 100 | > 100 | > 100 | > 100 | > 100
C=C(C(=O)OCC)C(=O)OCC | > 100 | > 100 | > 100 | > 100 | > 100 | > 100 | > 100 | > 100 | > 100 | > 100
CCOS(C)(=O)=O | > 100 | > 100 | > 100 | > 100 | > 100 | > 100 | > 100 | > 100 | > 100 | > 100
CC1(C)OC[C@@H](O)[C@H](C#N)CO1 | > 100 | > 100 | > 100 | > 100 | > 100 | > 100 | > 100 | > 100 | > 100 | > 100
S=C1NC2=C(CSC/C2=C\c2cccc(Br)c2)C(c2cccc(Br)c2)N1 (stereo not given) | > 100 | > 100 | > 100 | > 100 | > 100 | > 100 | > 100 | > 100 | > 100 | > 100
O=C1NC(N2CCOCC2)=N/C1=C\c1ccco1 | > 100 | > 100 | > 100 | > 100 | > 100 | > 100 | > 100 | > 100 | > 100 | > 100
CC1(C)[C@@H]2CC[C@@]1(C)CN(CCC[N+](C)(C)C)C2 | > 100 | > 100 | > 100 | > 100 | > 100 | > 100 | > 100 | > 100 | > 100 | > 100
